Test results taken from patent publication US11773086B2, “Fungal modulators” (TRUSTEES OF BOSTON UNIVERSITY, priority 2020, dated 2023).

Assays:
C. albicans (SN95) = assay: Azoffluxin dose-response with background fluconazole; assay type: cell-based, Candida albicans; conditions: fluconazole-sensitive laboratory strain SN95, background FLC 4 μg/mL
Method: FIGS. 2A-2E illustrate the above-described screening of the BU-CMD which identified azoffluxin as a fluconazole (FLC) potentiator against C. auris. […] Growth, as determined by optical density at 600 nm (OD600), is plotted in the presence of each CMD compound alone on the y-axis and in combination with FLC on the x-axis. Dotted lines represent 7-median absolute deviations from the median for each condition. […] FIG. 2B depicts the synergistic interactions. […] Growth was measured by the OD600 and normalized to the no drug control (see color bar). The fractional inhibitory concentration index (FICI) was calculated to determine the chemical interaction, with a value below 0.5 indicating synergy. […] FIG. 2D depicts FLC Etest strips in the presence and absence of 50 μM azoffluxin. […]
Compound potency was assessed alone by dose response assays or in combination with another compound by dose-response matrixes in 96-well plates, or 384-well, flat-bottom, microtiter plates (Corning) as previously described. […] Growth was quantified by measuring OD600 and corrected for medium background. All strains were assessed in biological duplicate experiments with technical duplicates. […] For dose-response matrixes fractional inhibitory concentration index at 90% growth inhibition (FICI90) was calculated as previously described. […]

[1] = Stability and activity in plasma; assay type: in vitro ADME
[2] = Single dose plasma pharmacokinetic profile; assay type: in vivo, mice; conditions: mouse
293T cells = 293T cells grown without C. auris (luciferase signal); assay type: cell-based, human; conditions: 293T cells without C. auris, any treatment condition
Method: FIG. 10A depicts mammalian embryonic kidney (293T) cells expressing luciferase used to quantify mammalian cell growth in co-culture. Mammalian cells were seeded in 384-well plates in DMEM medium at 5×10^5 cells/mL overnight. After 24 hours the indicated concentration of compound (⋅ indicates combo treatment concentrations) was added along with 2.5×10^3 cells/mL of C. auris. Co-cultures were incubated for 48 hours at 37° C. and then the luminescence was measured as an output of mammalian cell growth. Error represents standard deviation between technical quadruplicates, (***) indicates a p-value<0.001 between 293T cells alone and co-culture growth for each condition. […] FIG. 10C depicts checkerboard assays performed as described in FIG. 2B with C. auris Clade IV isolate B11801. Relative growth was measured after 24 hours using OD600 and normalized to no-drug control wells (see color bar). The FICI calculated for each checkerboard is shown in the top right of each plot, with values<0.5 indicating synergy. FIG. 10D depicts kidney fungal burden (CFU) in mice from each treatment group (n=3) that had been infected with C. auris B11801. […] The significance of differences between combination treatment and treatment with each compound alone was determined by two-tailed unpaired student t-test, (***) p-value<0.001. […]

**Q.** With `C=C(C)C[C@@H](O)COc1cc2c(cc1C1(c3cc4c(cc3OC[C@H](O)CC(=C)C)OCO4)C(=O)Nc3cc(F)ccc31)OCO2` [CMLD012336] as the molecule, how does the “enhancement of fluconazole activity” value (C. albicans (SN95)) read?
**A.** did not enhance the activity of fluconazole

**Q.** What about the stability in plasma [1] of the same molecule?
**A.** stable and retains activity in plasma

**Q.** What about the half-life [2] of the same molecule?
**A.** 2.6 h

**Q.** What about the mammalian cytotoxicity (293T cells) of the same molecule?
**A.** no detectable mammalian cytotoxicity
